# Literature values in patent publication US8193207B2, “Lactam compounds and methods of using the same” (Incyte Corporation, priority 2005, dated 2012).
# Molecular target: T1, 11βHSD1 in the eye (Homo sapiens, UniProt P28845)
# T1 construct: host or cells: eye tissue (non-pigmented epithelial cells) of healthy volunteers, in vivo
# Details: healthy volunteers; after seven days of carbenoxolone treatment
# T1 sequence (P28845 whole entry): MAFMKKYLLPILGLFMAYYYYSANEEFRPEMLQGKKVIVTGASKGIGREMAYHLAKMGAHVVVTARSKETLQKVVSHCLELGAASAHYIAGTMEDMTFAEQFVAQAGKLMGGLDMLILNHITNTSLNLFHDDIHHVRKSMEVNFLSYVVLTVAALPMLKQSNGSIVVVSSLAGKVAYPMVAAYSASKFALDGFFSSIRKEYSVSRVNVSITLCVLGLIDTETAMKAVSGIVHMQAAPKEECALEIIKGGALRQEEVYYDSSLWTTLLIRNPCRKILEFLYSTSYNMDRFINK
smiles,measurement,value
CC1(C)[C@@H](OC(=O)CCC(=O)O)CC[C@]2(C)[C@H]3C(=O)C=C4[C@@H]5C[C@@](C)(C(=O)O)CC[C@]5(C)CC[C@@]4(C)[C@]3(C)CC[C@@H]12 [carbenoxolone],IOP reduction,18%
